In US20220290196A1, “GENETICALLY ENGINEERED MICROBES AND BIOSYNTHETIC METHODS” (The Regents of the University of California, priority 2019, published 2022):
Several values for one entry are separate records, joined by “and”; a condition that tells them apart may be missing. Equal entries are not always repeated.

B1: Saccharomonospora sp. CNQ-490 Tar13 (tryptophan 2,3-dioxygenase), wild type, SEQ ID NO: 1 (expressed SEQ ID NO: 2) (Saccharomonospora piscinae) (protein)
chain: MTERTATRTEPAYGEILRLDELLELACVNDEADRALFLSAHQACEIWFAVVLRHLEDVTDALSLDDGATAAELLERLPRIITVIIEHFEVLGTLKPEAFDRIRADLGSSSGFQSVQYREIEYLCGARDTRFLNTAGFRDRDRRRLRERLAKRSLSNVFLEYRGRAGDRDACRISDALHEFDDSVRALRLRHAGIAELFLGSIPGTAGTAGAAYLRRSASRTLFPELFDRRASGTGG

Legend:
Tar14 = Tar14 in vitro halogenation assay with substrate analogues; assay type: biochemical, Saccharomonospora sp. CNQ-490; conditions: substrate 0.25 mM, Tar14 5 μM, 30° C., 4 h; for Enzyme assays, % conversion, Tar14, Br^−: KBr 100 mM; for Enzyme assays, % conversion, Tar14, Cl^−: NaCl 100 mM
Protocol: Tar14. Tar14 reaction mixture of total volume 100 μL in 1.5 mL Eppendorf tube was composed of the following components:
Buffer (10 mM Tris, 10% glycerol, pH 7.6): up to 100 μL

Tar13 = Tar13 in vitro assay with substrate analogues; assay type: biochemical, Saccharomonospora sp. CNQ-490; conditions: for Enzyme assays, % conversion, Tar13: substrate 0.25 mM, Tar13 20 μM, overnight at 30° C.
Protocol: Tar13. Upon testing different reaction compositions (buffers, concentration of ascorbic acids and hemin, pH), the following conditions were found as optimal:
(§1) Buffer: up to 50 μL (50 mM Tris, 500 mM NaCl 10% glycerol, pH 8.0)
(§2) In a separate Eppendorf tube premix:
Add substrate solution to the enzyme mixture to start reaction
When Tar13 was directly added to the enzyme reaction, immediate protein precipitation occurred. The same was observed if the enzyme was not pre-mixed with hemin and ascorbic acid. Full substrate conversion was achieved after overnight incubation at 30° C. in 1.5 mL Eppendorf tube with shaking. The reactions were quenched by addition of equal volume of HPLC grade methanol.

Tar16 = assay: Coupled Tar13/Tar16 assay (Tar16 substrate generated in situ by Tar13); assay type: biochemical, Saccharomonospora sp. CNQ-490; conditions: for Enzyme assays, % conversion, Tar16: substrates generated in situ by Tar13, Tar16 10 μM, overnight at 30° C.
Protocol: Coupled Tar13 Tar]6. The reaction mixture of total volume 100 μL in 1.5 mL Eppendorf tube was composed of the following components:
Buffer: up to 50 μL (50 mM Tris, 500 mM NaCl 10% glycerol, pH 8.0
Substrate (for Tar13 enzyme): 0.25 μM
as §2
Buffer: up to […] (50 mM Tris, 500 mM NaCl 10% glycerol, pH 8.0)
Add substrate solution to the enzyme mixture to start reaction.
No difference in conversion was observed when Tar16 was added into the assay mixture either together with Tar13, or after 2 h of incubation at 30° C., or after overnight incubation at 30° C., followed by another 4 h of incubation after addition of Tar16. Therefore, for convenience, all components were mixed at the same time point, the reactions were incubated at 30° C. overnight, after which the assays were quenched by addition of equal volume of HPLC grade methanol.

[1] = test system: S. coelicolor M1146-tarM1Δtar14; assay: Feeding/chemical complementation experiment, incorporation into taromycin; assay type: cell-based, Streptomyces coelicolor; conditions: for Feeding, % incorporation, A1 + A13 domain: incorporation at residue-1 and residue-13; for Feeding, % incorporation, A1 + A13 domain / Feeding, % incorporation, A1 domain: analogue fed at 2 mM, judged by comparison to taromycin yields by S. coelicolor M1146-tarM1; for Feeding, % incorporation, A1 domain: incorporation only at residue-1
Protocol: For taromycin production, seed culture in TSBY medium was inoculated with corresponding S. coelicolor spore suspension (collected from fresh SFM plates) and was cultured for 36-48 h till a dense creamy consistency was reached. Kanamycin at 10 μg mL^−1 final concentration was added to the seed cultures of S. coelicolor M1146-pCAP01-tarM1 and S. coelicolor M1146-pCAP01-tarM1Δtar14. Inocula of seed culture (5%, v/v) were used for fermentation in MP medium (1% glucose, 1% soluble starch, 0.4% peptone, 0.3% yeast extract, 0.3% soytone, 0.2% meat extract, 0.2% CaCO3, and 0.5% NaCl, pH 7.2). Fermentation was carried out at 30° C. and 220 rpm in a rotary incubator for 6 days. A maximum of 40 mL of production medium was added into 250 mL flask with metal springs.
S. coelicolor M1146-pCAP01-tarM1Δtar14 cultures were grown as described in Section 3 for taromycin production. After 18 and 36 h of cultivation, tryptophan analogues in the form of water suspension were added to the production cultures to a final concentration 2 mM. The cultures were further incubated for 5 days before extraction and further analysis by LC-HRMS^n. All experiments were repeated independently twice with three replicates for each compound. In parallel, cultures of S. coelicolor M1146-pCAP01-tarM1 and S. coelicolor M1146-pCAP01-tarM1Δtar14 were grown as controls.
To analyze production of taromycins and analogues, solid phase extraction of the culture supernatants was performed with Amberlite XAD-16 resin (SIGMA). For analytical purposes around 1 g of washed and equilibrated resin was added to 20 mL of supernatant followed by shaking for 30-60 min. Samples were then spun down and decanted. The resin was washed twice with water (15 mL), before elution with methanol (5 mL). The methanol extracts from the resin were used for LCMS analysis without additional concentration step.

[2] = test system: Tar14, Tar13, and Tar13/16; assay: In vitro assays with Tar14, Tar13, and Tar13/16 (FIG. 20 summary); assay type: biochemical, Saccharomonospora sp. CNQ-490; conditions: Tar14, Tar13, Tar13/16
[3] = substrate: N[C@@H](Cc1c[nH]c2cc(Cl)ccc12)C(=O)O; assay: Kinetic characterization of Tar13-catalyzed oxidation of L-6-Cl-tryptophan; assay type: biochemical, Saccharomonospora sp. CNQ-490; conditions: other: Tar13, L-6-Cl-Trp, 30° C., pH 8.0
Protocol: To determine kinetic parameters for Tar13-catalyzed oxidation of L-6-Cl-tryptophan, the following reaction conditions were used:
as §1, §2
The enzyme mixture was added to the substrate solution to start the reactions. The reactions were incubated at 30° C. for 5, 10, 15, 30 min, after which the assays were quenched by addition of equal volume of HPLC grade methanol and frozen at −70° C. till further analysis by HPLC. All assays were performed in triplicates for each substrate concentration and every time point. In parallel, for each time point and substrate concentration, assays with no added enzyme were used as controls. Prior HPLC analysis (method 5), L-tryptophan was added to the quenched reaction mixtures as an internal standard for quantification.
Product formation was quantitated by calculating decrease of the area of the remaining substrate in comparison to the substrate peak area in the control with no enzyme added, and the ratio of peak areas to internal standard were fitted into a calibration curve to determine product concentrations.

Row | Molecule | Enzyme assays, % conversion, Tar14, Br^− (Tar14) | Enzyme assays, % conversion, Tar14, Cl^− (Tar14) | Enzyme assays, % conversion, Tar13 (Tar13) | Enzyme assays, % conversion, Tar16 (Tar16) | Feeding, % incorporation, A1 domain [1] | further results
1 | Nc1cc(Cl)ccc1C(=O)CC(N)C(=O)O [Compound 1, L-4-chlorokynurenine] | 5% | <1% |  |  |  | 
2 | Nc1ccccc1C(=O)C[C@H](N)C(=O)O [Compound 5, L-kynurenine] | 30% | 30% |  |  |  | 
3 | N[C@@H](Cc1c[nH]c2cc(Cl)ccc12)C(=O)O [Compound 7, L-6-Chlorotryptophan] | <5% |  | 100% | 100% |  | Conversion/activity as substrate for Tar13 (Tar13): complete conversion; Conversion in coupled Tar13/Tar16 reaction (Tar16; Tar16 added to Tar13 reaction): full conversion; Chemical complementation of taromycin production ([1]; S. coelicolor M1146-tarM1Δtar14 mutant fed with compound): restored taromycin production; Feeding, % incorporation, A1 + A13 domain [1]: 100%
4 | N[C@@H](Cc1c[nH]c2ccc(Br)cc12)C(=O)O [Compound 8, L-5-Bromotryptophan] |  | <1% | <1% | 100% | 50% | 
5 | N[C@@H](Cc1c[nH]c2cc(Br)ccc12)C(=O)O [Compound 9, L-6-bromotryptophan] | <1% |  | 100% | 100% |  | Feeding, % incorporation, A1 + A13 domain [1]: 20%
6 | N[C@H](Cc1c[nH]c2ccccc12)C(=O)O [Compound 11, D-tryptophan] | 20% | 15% | <1% | 40% |  | 
7 | N[C@@H](Cc1c[nH]c2cccc(Br)c12)C(=O)O [Compound 12, L-4-bromotryptophan] | <5% | <1% |  |  |  | 
8 | N[C@@H](Cc1c[nH]c2ccc(Cl)cc12)C(=O)O [Compound 14, D/L-5-chlorotryptophan] | <1% | <1% | <1% | 100% | 30% | 
9 | N[C@@H](Cc1c[nH]c2cccc(F)c12)C(=O)O [Compound 15, D/L-4-fluorotryptophan] | 15% | 10% |  |  | 15% | Feeding, % incorporation, A1 + A13 domain [1]: 15%
10 | N[C@@H](Cc1c[nH]c2cc(F)ccc12)C(=O)O [Compound 16, D/L-6-fluorotryptophan] | 25% | 25% | 5% | 100% | <5% | Feeding, % incorporation, A1 + A13 domain [1]: 90%
11 | Cc1cccc2[nH]cc(C[C@H](N)C(=O)O)c12 [Compound 17, D/L-4-methyltryptophan] | 75% | 100% |  |  | 40% | 
12 | Cc1ccc2[nH]cc(C[C@H](N)C(=O)O)c2c1 [Compound 18, D/L-5-methyltryptophan] | 25% | 50% | <1% | 70% | 35% | 
13 | NC(Cc1c[nH]c2ccc([N+](=O)[O-])cc12)C(=O)O [Compound 21, D/L-5-NO2-Trp] |  |  |  |  | 60% | 
14 | NCCc1c[nH]c2ccc(O)cc12 [Compound 22, serotonine] |  |  |  |  |  | Conversion by any of the enzymes [2]: not converted by any of the enzymes
15 | N[C@@H](Cc1ccc(O)cc1)C(=O)O [Compound 23, L-tyrosine] |  |  |  |  |  | Conversion by any of the enzymes [2]: not converted by any of the enzymes
16 | N[C@@H](Cc1ccccc1)C(=O)O [Compound 24, L-phenylalanine] |  |  |  |  |  | Conversion by any of the enzymes [2]: not converted by any of the enzymes
17 | L-5-CH3O-Trp [Compound 19] | <5% | <1% | <1% | 100% | 15% | 
18 | L-5-OH-Trp [Compound 20] | <1% | 5% |  |  | 10% | 
19 | L-7-Br-Trp [Compound 13] | 100% | 100% |  |  | <5% | 
20 | B1 |  |  |  |  |  | Vmax [3]: 0.061 ± 0.006 µM/s; kcat [3]: 0.03 s⁻¹ and 0.031 ± 0.003 s⁻¹
